“Also recorded” adds a separate entry of the source.
Assays:
[1] = test system: Vth stadium L. oleracea larvae; assay: Insect bioassay 1: artificial diet feeding, 24 h; format: in vivo, Lacanobia oleracea; conditions: 1.5% of dietary protein (1.5 mg/5 g diet), 24 h exposure, n=7
Protocol: (§1) A potato leaf based artificial diet (24) was used to assay recombinant proteins against newly moulted Vth stadium L. oleracea which were starved for 24 h prior to exposure to diets. To encourage feeding, sucrose was incorporated at 0.05% (w/w) in assays 2 A and B and at 0.5% (w/w) in assay 3. Individual larvae were maintained in clear plastic pots containing moist filter paper to prevent diet desiccation. Larval wet weights (−/+0.1 mg) were recorded before, during, and after exposure to treatments, and diet consumption was estimated on a wet weight basis. The amounts of recombinant proteins added to diets were based on activity values derived from agglutination assays. Larvae (n=7 per treatment) were exposed to control diet; control diet containing ammonia (0.0002 v/w); diet containing recombinant GNA at a concentration of approx. 1.5% (w/w) of dietary protein (1.5 mg/5 g diet wet weight) and diet containing recombinant FP at a concentration of approx. 1.5% (w/w) of dietary protein for 24 h.

[2] = test system: Vth instar L. oleracea larvae; assay: Insect bioassay 2A: artificial diet feeding, 3 days; format: in vivo, Lacanobia oleracea; conditions: 0.5% of dietary protein (0.5 mg/5 g diet), 3 days exposure, n=8
Protocol: as §1, with “assays.” for “assays. Larvae (n=7 per treatment) were exposed to control diet; control diet containing ammonia (0.0002 v/w); diet containing recombinant GNA at a concentration of approx. 1.5% (w/w) of dietary protein (1.5 mg/5 g diet wet weight) and diet containing recombinant FP at a concentration of approx. 1.5% (w/w) of dietary protein for 24 h.”
Larvae (n=8 per treatment) were exposed for 3 days to control diet; control diet containing ammonia; diet containing native GNA at approx. 0.5% (w/w) of dietary protein: diet containing native GNA and synthetic Manse-AS at a total concentration of approx. 0.5% (w/w) (i.e. ratio of GNA: Manse-AS equivalent to FP and diet containing FP at approx. 0.5% (w/w) of dietary protein.

Q: “GNA: Galanthus nivalis agglutinin (snowdrop lectin); standard GNA obtained from Vector Laboratories” was tested. Which “mean increase/decrease in weight of larvae” value [1] did it give?
A: The value was “more than 50%”.

Q: What about the “increase/decrease in mean wet weight of larvae” value [2] of the same substance?
A: Its value is “four fold increase in weight; also recorded: fourfold increase in weight”.

Q: Which “mean increase/decrease in weight of larvae” value [1] does the source give for “recombinant GNA: Galanthus nivalis agglutinin (snowdrop lectin), 109 residues, expressed in E. coli with N-terminal His tag, SEQ ID NO: 2” here?
A: Its value is “more than 50%”.

Source: patent US7196057B2, “Fusion proteins for insect control” (University of Durham, priority 2001, dated 2007)
